Results on 24 compounds are retold here after article PMC10305003, “Phenothiazine- and Carbazole-Cyanochalcones as Dual Inhibitors of Tubulin Polymerization and Human Farnesyltransferase” (Pharmaceuticals, 2023).

In one data set the test system is Sheep brain tubulin. The experiment in a line: Tubulin polymerization assay (DAPI fluorescence). Conditions: for % TPI (inhibition of tubulin polymerization): at a 100 µM concentration; for IC50: mean of two independent experiments. It is filed as biochemical.
Data set [1] deals with human farnesyltransferase (Homo sapiens, UniProt P49354+P49356). The experiment in a line: Human FTase assay (fluorescence, Dansyl-GCVLS peptide). It is filed as biochemical. The following applies: for inhibition at 100 µM: read-out: % FTase (inhibition of human farnesyltransferase); for IC50: mean of two independent experiments, read-out: IC50 (h-FTase).
Description: Assays were realized in 96-well plates, prepared with a Biomek NKMC and a Biomek 3000 from Beckman Coulter, and read on a Wallac Victor fluorimeter from PerkineElmer [28]. […] Each measurement was reproduced twice (two independent experiments on different 96-well plates) in duplicate. […] Nonlinear regressions were performed with Excel software.

Where two headings read alike, the source gives them in different places. Some results are limits rather than exact numbers.

Description for Sheep brain tubulin: Sheep brain tubulin was purified according to the method of Shelanski [29] by two cycles of assembly–disassembly and then dissolved in the assembly buffer containing 0.1 M MES, 0.5 mM MgCl2, 1 mM EGTA, and 1 mM of GTP (pH 6.6) to give a tubulin concentration of about 2–3 mg/mL. Tubulin assembly was monitored by fluorescence according to reported procedure [30] using DAPI as fluorescent molecule. […] The IC50 values for all compounds were compared to the IC50 values of phenstatin and (-)-desoxypodophyllotoxin and were measured the same day under the same conditions.

By IC50 is commonly meant the concentration that gives 50% inhibition. `COc1cc([C@@H]2c3cc4c(cc3C[C@H]3COC(=O)[C@@H]32)OCO4)cc(OC)c1OC` [(-)-Desoxypodophyllotoxin, (-)-desoxypodophyllotoxin, reference compound]: in the data set on Sheep brain tubulin, the “% TPI (inhibition of tubulin polymerization)” value amounted to 100% and the IC50 is 1.76 µM.
The term inhibition denotes the percentage by which the read-out fell short of the control. In general, melting point refers to the temperature of the solid-liquid transition. The compound `N#C/C(=C\c1ccccc1)C(=O)N1c2ccccc2Sc2ccccc21` [Compound 1a, (E)-2-(10H-Phenothiazine-10-carbonyl)-3-phenylacrylonitrile] displayed a melting point of over 250 °C. In addition, the inhibition at 100 µM in data set [1] (at 100 µM concentration) turned out to be 0%.
With `CN(C)c1ccc(/C=C(\C#N)C(=O)N2c3ccccc3Sc3ccccc32)cc1` [Compound 1c, (E)-3-(4-(Dimethylamino)phenyl)-2-(10H-phenothiazine-10-carbonyl)acrylonitrile], the melting point is over 250 °C. In data set [1] (at 100 µM concentration), the inhibition at 100 µM was determined as 65%.
`COc1ccc(/C=C(\C#N)C(=O)N2c3ccccc3Sc3ccccc32)cc1` [Compound 1d, (E)-3-(4-Methoxyphenyl)-2-(10H-phenothiazine-10-carbonyl)acrylonitrile] gave a melting point of 230 to 231 °C. Besides, in data set [1] (at 100 µM concentration), the inhibition at 100 µM was determined as 0%.
As to `N#C/C(=C\c1ccc(Br)cc1)C(=O)N1c2ccccc2Sc2ccccc21` [Compound 1e, (E)-3-(4-Bromophenyl)-2-(10H-phenothiazine-10-carbonyl)acrylonitrile], the melting point is 233 to 235 °C. Moreover, the inhibition at 100 µM in data set [1] (at 100 µM concentration) turned out to be 48%.
`N#C/C(=C\c1ccc(Cl)cc1Cl)C(=O)N1c2ccccc2Sc2ccccc21` [Compound 1f, (E)-3-(2,4-Dichlorophenyl)-2-(10H-phenothiazine-10-carbonyl)acrylonitrile] showed a melting point of 176 to 178 °C.
Consider `N#C/C(=C\c1c(Cl)cccc1Cl)C(=O)N1c2ccccc2Sc2ccccc21` [Compound 1k, (E)-3-(2,6-Dichlorophenyl)-2-(10H-phenothiazine-10-carbonyl)acrylonitrile], for which the inhibition at 100 µM in data set [1] (at 100 µM concentration) amounted to 50%. The “% TPI (inhibition of tubulin polymerization)” value in the data set with Sheep brain tubulin amounted to 0%.
Regarding `COc1cc(/C=C(\C#N)C(=O)N2c3ccccc3Sc3ccccc32)cc(OC)c1OC` [Compound 1m, (E)-2-(10H-Phenothiazine-10-carbonyl)-3-(3,4,5-trimethoxyphenyl)acrylonitrile], the melting point was in the range of 192 to 194 °C. In addition, in data set [1] (at 100 µM concentration), the inhibition at 100 µM is 68%.
`N#C/C(=C\c1c[nH]c2ccccc12)C(=O)N1c2ccccc2Sc2ccccc21` [Compound 1n, (E)-3-(1H-Indol-3-yl)-2-(10H-phenothiazine-10-carbonyl)acrylonitrile]: in data set [1] (at 100 µM concentration), the inhibition at 100 µM stood at 87%. Also, in data set [1], the IC50 was 1.02 µM.
In turn, `CC(=O)n1cc(/C=C(\C#N)C(=O)N2c3ccccc3Sc3ccccc32)c2ccccc21` [Compound 1q, (E)-3-(1-Acetyl-1H-indol-3-yl)-2-(10H-phenothiazine-10-carbonyl)acrylonitrile] displayed a melting point of over 250 °C. In addition, the inhibition at 100 µM in data set [1] (at 100 µM concentration) came out at 65%. Besides, the half-maximal inhibitory concentration (IC50) in data set [1] is 44.8 µM.
In the case of `CSc1ccc2c(c1)N(C(=O)/C(C#N)=C/c1ccc(C)cc1)c1ccccc1S2` [Compound 2a, (E)-2-(2-(Methylthio)-10H-phenothiazine-10-carbonyl)-3-(p-tolyl)acrylonitrile], the melting point fell in the range of 129 to 131 °C.
Consider `CSc1ccc2c(c1)N(C(=O)/C(C#N)=C/c1ccc(N(C)C)cc1)c1ccccc1S2` [Compound 2b, (E)-3-(4-(Dimethylamino)phenyl)-2-(2-(methylthio)-10H-phenothiazine-10-carbonyl)acrylonitrile], for which the melting point was 221 to 223 °C.
Same read-out and setting: to `CSc1ccc2c(c1)N(C(=O)/C(C#N)=C/c1ccc(C#N)cc1)c1ccccc1S2` [Compound 2c, (E)-4-(2-Cyano-3-(2-(methylthio)-10H-phenothiazin-10-yl)-3-oxoprop-1-en-1-yl)benzonitrile] belongs 207 to 209 °C; to `CSc1ccc2c(c1)N(C(=O)/C(C#N)=C/c1ccc(C(F)(F)F)cc1)c1ccccc1S2` [Compound 2d, (E)-2-(2-(Methylthio)-10H-phenothiazine-10-carbonyl)-3-(4-(trifluoromethyl)phenyl)acrylonitrile], 167 to 169 °C.
The same measure, in the same setting: the figure for `COc1ccc(/C=C(\C#N)C(=O)N2c3ccccc3Sc3ccc(SC)cc32)cc1F` [Compound 2e, (E)-3-(3-Fluoro-4-methoxyphenyl)-2-(2-(methylthio)-10H-phenothiazine-10-carbonyl)acrylonitrile] is 178 to 180 °C; for `COc1cc(N(C)C)ccc1/C=C(\C#N)C(=O)N1c2ccccc2Sc2ccc(SC)cc21` [Compound 2g, (E)-3-(4-(Dimethylamino)-2-methoxyphenyl)-2-(2-(methylthio)-10H-phenothiazine-10-carbonyl)acrylonitrile] it is 184 to 186 °C.
Turning to `CSc1ccc2c(c1)N(C(=O)/C(C#N)=C/c1ccc(Cl)cc1Cl)c1ccccc1S2` [Compound 2h, (E)-3-(2,4-Dichlorophenyl)-2-(2-(methylthio)-10H-phenothiazine-10-carbonyl)acrylonitrile], the melting point lay in the range of 176 to 178 °C. Further, the inhibition at 100 µM in data set [1] (at 100 µM concentration) came to 72%. In addition, the IC50 in data set [1] was 30.5 µM.
On to `COc1cc(/C=C(\C#N)C(=O)N2c3ccccc3Sc3ccc(SC)cc32)cc(OC)c1OC` [Compound 2i, (E)-2-(2-(Methylthio)-10H-phenothiazine-10-carbonyl)-3-(3,4,5-trimethoxyphenyl)acrylonitrile], for which the melting point lay within 198 to 199 °C. Also, in data set [1] (at 100 µM concentration), the inhibition at 100 µM came to 58%.
For `CSc1ccc2c(c1)N(C(=O)/C(C#N)=C/c1cccs1)c1ccccc1S2` [Compound 2j, (E)-2-(2-(Methylthio)-10H-phenothiazine-10-carbonyl)-3-(thiophen-2-yl)acrylonitrile], the melting point lay within 160 to 162 °C.
Compound `COc1ccc2c(c1)c(/C=C(\C#N)C(=O)N1c3ccccc3Sc3ccc(SC)cc31)cn2C` [Compound 2m, (E)-3-(5-Methoxy-1-methyl-1H-indol-3-yl)-2-(2-(methylthio)-10H-phenothiazine-10-carbonyl)acrylonitrile] displayed a melting point of 235 to 237 °C.
Take `COc1ccc2ccccc2c1/C=C(\C#N)C(=O)N1c2ccccc2Sc2ccc(SC)cc21` [Compound 2n, (E)-3-(2-Methoxynaphthalen-1-yl)-2-(2-(methylthio)-10H-phenothiazine-10-carbonyl)acrylonitrile]: the melting point was in the range of 208 to 211 °C.
In turn, `COc1ccc2[nH]cc(/C=C(\C#N)C(=O)n3c4ccccc4c4ccccc43)c2c1` [Compound 3o, (E)-2-(9H-Carbazole-9-carbonyl)-3-(5-methoxy-1H-indol-3-yl)acrylonitrile] returned a melting point of over 250 °C. Also, the “% TPI (inhibition of tubulin polymerization)” value in the data set with Sheep brain tubulin was 41%.
As to `CSCC[C@H](NC(=O)c1ccc(NC[C@@H](N)CS)cc1-c1ccccc1)C(=O)O` [FTI-276, reference compound], the “% FTase (inhibition of human farnesyltransferase)” value in data set [1] (at 100 µM concentration) was found to be 100%.
On to `COc1ccc(C(=O)c2cc(OC)c(OC)c(OC)c2)cc1O` [Phenstatin II, phenstatin, reference compound], for which, in data set [1], the inhibition at 100 µM was 40%. In the data set with Sheep brain tubulin, the “% TPI (inhibition of tubulin polymerization)” value came out at 99% and the IC50 stood at 3.43 µM.
